Measured values: patent US11186577B2, “Vasopressin receptor antagonists and products and methods related thereto” (BlackThorn Therapeutics, Inc., priority 2017, dated 2021)
Like-named read-outs stand apart in the source and are kept apart here.

Tests used:
[1] = target: human Arginine Vasopressin Receptor 1a (AVPR1a) (Homo sapiens (Human), UniProt P37288); assay: Vasopressin V1A receptor antagonist assay (AVP-evoked calcium, FLIPR, CHO-AVPR1a cells); type: cell-based
Procedure, shortened: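 CHO cells expressing human AVPR1a, Calcium-6 dye loaded 60-90 min, preincubated with compound 15 min at 37° C., then challenged with AVP at its daily-determined EC80. FLIPR fluorescence; 10-point 1:3 series from 3 μM, duplicates.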

[2] = target: human Arginine Vasopressin Receptor 1b (AVPR1b) (Homo sapiens (Human), UniProt P47901); assay: Vasopressin V1B receptor antagonist assay (AVP-evoked calcium, FLIPR, CHO-AVPR1b cells); type: cell-based
Experimental: The purpose of the assay is to determine the inhibitory effect of synthesized compounds on the Vasopressin V1b receptor. The assay was performed in Chinese Hamster Ovary (CHO) cells expressing the human Arginine Vasopressin Receptor 1b (AVPR1b). Arginine Vasopressin (AVP) evokes an increase in intracellular calcium in CHO-AVPR1b cells which is measured in a fluorescence assay on the FLIPR^TETRA using calcium sensitive dyes. Test compounds were assessed for their ability to affect the magnitude of the response to AVP, with antagonists showing a concentration-dependent reduction in the AVP-mediated fluorescence.
CHO-AVPR1b cells were maintained in routine culture in T175 Flasks at 37° C., 5% CO2. The growth medium consisted of Ham's F12 media supplemented with 10% v/v fetal bovine serum, 1× non-essential amino acids, and 0.4 mg/ml Geneticin G418.
Cells were harvested from T175 flasks when they were 80-90% confluent by first washing the cell monolayer with PBS and then dissociated using trypsin 0.05%/EDTA (3 mL for a T175 Flask). The flasks were incubated at room temperature until the cells detached. To the cell suspension, 10 ml of growth media was added and the cell density determined using the Vi-Cell automated cell counter. The cells were spun at 1000 rpm for 3 minutes, then the supernatant was carefully removed and discarded. The cell pellet was re-suspended at 6.0e^5 cells/ml in growth media. 25 μL of cells in growth media was dispensed into each well (15,000 cells per well) of a poly-D-lysine coated black, clear bottomed, 384-well plate. The plates were incubated at 37° C., 5% CO2 overnight.
At the start of each assay day, the potency of AVP is assessed and an EC80 concentration determined for subsequent compound profiling. Assays were performed using a two-step addition protocol on the FLIPR^TETRA; first addition of 5 μl of control or test compound at 10× final in assay buffer with 15 min incubation at 37° C., 5% CO2 followed by 10 μl of AVP at 6× final concentration in assay buffer. Changes in fluorescence were monitored for 3 min after both additions on the FLIPR^TETRA using 470-495 nm excitation and 515-575 nm emission wavelengths. The assay buffer consisted of HBSS (+Ca/+Mg) supplemented with 20 mM HEPES, and for the preparation of the AVP agonist only, 0.1% w/v bovine serum albumin. The assay was initiated by the removal of growth media from the cells and replacement with 45 μl of Calcium-6 dye (Molecular Devices) prepared at 1× in assay buffer. Cells were loaded with dye for 60-90 min at 37° C., 5% CO2 before initiation of the FLIPR^TETRA protocol. […] For compound profiling, test compounds were first serially diluted in DMSO (10-point curve, 1:3 dilutions) then diluted 33.3-fold in assay buffer prior to addition to the dye loaded cells on the FLIPR^TETRA. At the end of the incubation period 10 μl of AVP in assay buffer containing 0.1% BSA was added at the previously determined EC80 concentration.
In-plate controls for the assay include a Nelivaptan concentration-response curve as the reference V1b antagonist and an AVP concentration-response curve to confirm the reproducibility of the EC80 used for the compound challenge.

human Arginine Vasopressin Receptor 1a (AVPR1a), sequence (P37288 whole entry): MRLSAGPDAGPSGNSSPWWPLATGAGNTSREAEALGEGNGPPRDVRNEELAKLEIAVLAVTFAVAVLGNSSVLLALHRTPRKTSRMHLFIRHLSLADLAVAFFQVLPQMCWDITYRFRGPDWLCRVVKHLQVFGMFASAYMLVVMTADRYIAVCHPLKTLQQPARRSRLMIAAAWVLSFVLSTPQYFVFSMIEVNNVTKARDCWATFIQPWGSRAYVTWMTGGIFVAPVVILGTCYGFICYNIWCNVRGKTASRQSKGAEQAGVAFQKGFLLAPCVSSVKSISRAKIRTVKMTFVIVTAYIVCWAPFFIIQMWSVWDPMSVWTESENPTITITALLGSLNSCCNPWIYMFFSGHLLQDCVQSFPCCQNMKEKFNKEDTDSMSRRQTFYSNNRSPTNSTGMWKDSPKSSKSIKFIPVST
human Arginine Vasopressin Receptor 1b (AVPR1b), sequence (P47901 whole entry): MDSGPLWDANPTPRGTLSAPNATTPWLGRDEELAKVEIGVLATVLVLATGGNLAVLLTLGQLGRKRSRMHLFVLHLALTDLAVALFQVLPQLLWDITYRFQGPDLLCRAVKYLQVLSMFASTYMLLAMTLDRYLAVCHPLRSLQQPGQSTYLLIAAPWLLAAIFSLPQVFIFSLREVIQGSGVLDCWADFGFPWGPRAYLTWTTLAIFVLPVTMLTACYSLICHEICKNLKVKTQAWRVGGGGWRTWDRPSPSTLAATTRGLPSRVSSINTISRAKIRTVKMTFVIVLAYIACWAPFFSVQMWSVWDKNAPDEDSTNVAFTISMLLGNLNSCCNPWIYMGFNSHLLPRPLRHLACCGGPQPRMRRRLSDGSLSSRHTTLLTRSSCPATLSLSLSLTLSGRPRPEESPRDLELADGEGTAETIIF

## COC(=O)N1Cc2cc(Cl)ccc2-n2c(C3CC4(C3)CN(c3ccc(F)cn3)C4)nnc2C1C (single isomer, unassigned) [142A]
[1]; read-out: V1a IC50
  IC50: < 100 nM
[2]
  IC50: > 1000 nM

## COC(=O)N1Cc2cc(Cl)ccc2-n2c(C3CC4(C3)CN(c3ccc(F)cn3)C4)nnc2C1C (single isomer, unassigned) [Cpd 142B]
[1]; read-out: V1a IC50
  IC50: 500 to 1000 nM
[2]
  IC50: > 1000 nM

## CC(C)OC(=O)N1Cc2cc(Cl)ccc2-n2c(C3CC4(C3)CN(c3ccc(F)cn3)C4)nnc2C1C (single isomer, unassigned) [Cpd 163A]
[1]; read-out: V1a IC50
  IC50: < 100 nM
[2]
  IC50: > 1000 nM

## COC(=O)N1Cc2cc(Cl)ccc2-n2c(C3CC4(C3)CN(c3cnccn3)C4)nnc2C1C (single isomer, unassigned) [Cpd 165A]
[1]; read-out: V1a IC50
  IC50: < 100 nM
[2]
  IC50: > 1000 nM

## COC(=O)N1Cc2cc(Cl)ccc2-n2c(C3CC4(C3)CN(c3ncccn3)C4)nnc2C1C (single isomer, unassigned) [Cpd 166A]
[1]; read-out: V1a IC50
  IC50: < 100 nM
[2]
  IC50: > 1000 nM

## CC(C)OC(=O)N1Cc2cc(Cl)ccc2-n2c(C3CC4(C3)CN(c3ncccn3)C4)nnc2C1C (single isomer, unassigned) [Cpd 167A]
[1]; read-out: V1a IC50
  IC50: 100 to 500 nM
[2]
  IC50: > 1000 nM

## CCOC(=O)N1Cc2cc(Cl)ccc2-n2c(C3CC4(C3)CN(c3ncccn3)C4)nnc2C1C (single isomer, unassigned) [Cpd 168A]
[1]; read-out: V1a IC50
  IC50: < 100 nM
[2]
  IC50: > 1000 nM

## CCOC(=O)N1Cc2cc(Cl)ccc2-n2c(C3CC4(C3)CN(c3ccc(F)cn3)C4)nnc2C1C (single isomer, unassigned) [Cpd 169A]
[1]; read-out: V1a IC50
  IC50: < 100 nM
[2]
  IC50: > 1000 nM

## COC(=O)N1Cc2cc(Cl)ccc2-n2c(C3CC4(C3)CN(c3ncc(F)cn3)C4)nnc2C1C (single isomer, unassigned) [Cpd 170A]
[1]; read-out: V1a IC50
  IC50: < 100 nM
[2]
  IC50: > 1000 nM

## CC1c2nnc(C3CC4(C3)CN(c3ncccn3)C4)n2-c2ccc(Cl)cc2CN1C(=O)OC1CC1 (single isomer, unassigned) [Cpd 171A]
[1]; read-out: V1a IC50
  IC50: < 100 nM
[2]
  IC50: > 1000 nM

## CC1c2nnc(C3CC4(C3)CN(c3ncccn3)C4)n2-c2ccc(Cl)cc2CN1C(=O)OC1CC1 (single isomer, unassigned) [Cpd 171B]
[1]; read-out: V1a IC50
  IC50: 500 to 1000 nM
[2]
  IC50: > 1000 nM

## CC1c2nnc(C3CC4(C3)CN(c3ccc(F)cn3)C4)n2-c2ccc(Cl)cc2CN1C(=O)C1(F)CC1 (single isomer, unassigned) [Cpd 174A]
[1]; read-out: V1a IC50
  IC50: < 100 nM
[2]
  IC50: > 1000 nM

## CC1c2nnc(C3CC4(C3)CN(c3ccc(F)cn3)C4)n2-c2ccc(Cl)cc2CN1C(=O)C(C)(C)F (single isomer, unassigned) [Cpd 178A]
[1]; read-out: V1a IC50
  IC50: < 100 nM
[2]
  IC50: > 1000 nM

## CC1c2nnc(C3CC4(C3)CN(c3ccc(F)cn3)C4)n2-c2ccc(Cl)cc2CN1C (single isomer, unassigned) [Cpd 179A]
[1]; read-out: V1a IC50
  IC50: < 100 nM
[2]
  IC50: > 1000 nM

## CC1c2nnc(C3CC4(C3)CN(c3ccccn3)C4)n2-c2ccc(Cl)cc2CN1C(=O)C1(F)CC1 (single isomer, unassigned) [Cpd 181A]
[1]; read-out: V1a IC50
  IC50: < 100 nM
[2]
  IC50: > 1000 nM

## CC1c2nnc(C3CC4(C3)CN(c3ccc(F)cn3)C4)n2-c2ccc(Cl)cc2CN1C(=O)OC1CC1 (single isomer, unassigned) [Cpd 191A]
[1]; read-out: V1a IC50
  IC50: < 100 nM
[2]
  IC50: > 1000 nM

## CC1c2nnc(C3CC4(C3)CN(c3ncc(F)cn3)C4)n2-c2ccc(Cl)cc2CN1C(=O)OC1CC1 (single isomer, unassigned) [Cpd 192A]
[1]; read-out: V1a IC50
  IC50: < 100 nM
[2]
  IC50: > 1000 nM

## CC(C)OC(=O)N1Cc2cc(Cl)ccc2-n2c(C3CC4(C3)CN(c3ncc(F)cn3)C4)nnc2C1C (single isomer, unassigned) [Cpd 201A]
[1]; read-out: V1a IC50
  IC50: < 100 nM
[2]
  IC50: > 1000 nM

## CC1c2nnc(C3CC4(C3)CN(c3ncccn3)C4)n2-c2ccc(Cl)cc2CN1C(=O)OC(CF)CF (single isomer, unassigned) [Cpd 202A]
[1]; read-out: V1a IC50
  IC50: < 100 nM
[2]
  IC50: > 1000 nM

## CC1c2nnc(C3CC4(C3)CN(c3ccc(F)cn3)C4)n2-c2ccc(Cl)cc2CN1C(=O)OC(CF)CF (single isomer, unassigned) [Cpd 203A]
[1]; read-out: V1a IC50
  IC50: < 100 nM
[2]
  IC50: > 1000 nM

## CN1Cc2cc(Cl)ccc2-n2c(nnc2[C@H]2CC[C@H](Oc3ccccn3)CC2)C1 [balovaptan, reference compound]
[1]; in vitro antagonist assay, reference compounds, read-out: V1A IC50
  IC50: < 100 nM
[2]; in vitro antagonist assay, reference compounds
  IC50: > 1000 nM

## CN1Cc2cc(Cl)ccc2-n2c(nnc2C2CC3(C2)CN(c2ccc(F)cn2)C3)C1 [compound 1, 8-chloro-1-(2-(5-fluoropyridin-2-yl)-2-azaspiro[3.3]heptan-6-yl)-5-methyl-5,6-dihydro-4H-benzo[f][1,2,4]triazolo[4,3-a][1,4]diazepine]
[1]; read-out: V1a IC50
  IC50: < 100 nM
[2]
  IC50: > 1000 nM

## CN1Cc2cc(Cl)ccc2-n2c(nnc2C2CC3(C2)CN(c2ccccn2)C3)C1 [compound 2]
[1]; read-out: V1a IC50
  IC50: < 100 nM
[2]
  IC50: > 1000 nM

## CN1Cc2cc(Cl)ccc2-n2c(nnc2C2CC3(C2)CN(c2cnccn2)C3)C1 [compound 3]
[1]; read-out: V1a IC50
  IC50: < 100 nM
[2]
  IC50: > 1000 nM

## CN1Cc2cc(Cl)ccc2-n2c(nnc2C2CC3(C2)CN(c2ncccc2F)C3)C1 [compound 4]
[1]; read-out: V1a IC50
  IC50: < 100 nM
[2]
  IC50: > 1000 nM

## CN1Cc2cc(Cl)ccc2-n2c(nnc2C2CC3(C2)CN(c2cccc(F)n2)C3)C1 [compound 8]
[1]; read-out: V1a IC50
  IC50: < 100 nM
[2]
  IC50: > 1000 nM

## CN1Cc2cc(Cl)ccc2-n2c(nnc2C2CC3(C2)CN(C(=O)C2CC2)C3)C1 [compound 28]
[1]; read-out: V1a IC50
  IC50: < 100 nM
[2]
  IC50: > 1000 nM

## COCCN1Cc2cc(Cl)ccc2-n2c(nnc2C2CC3(C2)CN(c2ccccn2)C3)C1 [compound 39, 8-chloro-5-(2-methoxyethyl)-1-(2-(pyridin-2-yl)-2-azaspiro[3.3]heptan-6-yl)-5,6-dihydro-4H-benzo[f][1,2,4]triazolo[4,3-a][1,4]diazepine]
[1]; read-out: V1a IC50
  IC50: < 100 nM
[2]
  IC50: > 1000 nM

## Clc1ccc2c(c1)CN(C1CCC1)Cc1nnc(C3CC4(C3)CN(c3ccccn3)C4)n1-2 [compound 41]
[1]; read-out: V1a IC50
  IC50: < 100 nM
[2]
  IC50: > 1000 nM

## Fc1ccc(N2CC3(CC(c4nnc5n4-c4ccc(Cl)cc4CN(C4CCC4)C5)C3)C2)nc1 [compound 42]
[1]; read-out: V1a IC50
  IC50: < 100 nM
[2]
  IC50: > 1000 nM

## CCN1Cc2cc(Cl)ccc2-n2c(nnc2C2CC3(C2)CN(c2ccccn2)C3)C1 [compound 45]
[1]; read-out: V1a IC50
  IC50: < 100 nM
[2]
  IC50: > 1000 nM

## CCN1Cc2cc(Cl)ccc2-n2c(nnc2C2CC3(C2)CN(c2cnccn2)C3)C1 [compound 46]
[1]; read-out: V1a IC50
  IC50: < 100 nM
[2]
  IC50: > 1000 nM

## CC(C)N1Cc2cc(Cl)ccc2-n2c(nnc2C2CC3(C2)CN(c2cnccn2)C3)C1 [compound 47]
[1]; read-out: V1a IC50
  IC50: < 100 nM
[2]
  IC50: > 1000 nM

## CC(C)N1Cc2cc(Cl)ccc2-n2c(nnc2C2CC3(C2)CN(c2ccccn2)C3)C1 [compound 48]
[1]; read-out: V1a IC50
  IC50: < 100 nM
[2]
  IC50: > 1000 nM

## CCN1Cc2cc(Cl)ccc2-n2c(nnc2C2CC3(C2)CN(c2ccc(F)cn2)C3)C1 [compound 49]
[1]; read-out: V1a IC50
  IC50: < 100 nM
[2]
  IC50: > 1000 nM

## CC(C)N1Cc2cc(Cl)ccc2-n2c(nnc2C2CC3(C2)CN(c2ccc(F)cn2)C3)C1 [compound 50]
[1]; read-out: V1a IC50
  IC50: < 100 nM
[2]
  IC50: > 1000 nM

## FC(F)CN1Cc2cc(Cl)ccc2-n2c(nnc2C2CC3(C2)CN(c2ccccn2)C3)C1 [compound 52]
[1]; read-out: V1a IC50
  IC50: < 100 nM
[2]
  IC50: > 1000 nM

## CC(C)N1Cc2cc(Cl)ccc2-n2c(nnc2C2CC3(C2)CN(c2ncccc2F)C3)C1 [compound 54]
[1]; read-out: V1a IC50
  IC50: < 100 nM
[2]
  IC50: > 1000 nM

## Clc1ccc2c(c1)CN(C1CC1)Cc1nnc(C3CC4(C3)CN(c3ccccn3)C4)n1-2 [compound 56]
[1]; read-out: V1a IC50
  IC50: < 100 nM
[2]
  IC50: > 1000 nM

## Clc1ccc2c(c1)CN(C1COC1)Cc1nnc(C3CC4(C3)CN(c3ccccn3)C4)n1-2 [compound 57, 8-chloro-5-(oxetan-3-yl)-1-(2-(pyridin-2-yl)-2-azaspiro[3.3]heptan-6-yl)-5,6-dihydro-4H-benzo[f][1,2,4]triazolo[4,3-a][1,4]diazepine]
[1]; read-out: V1a IC50
  IC50: < 100 nM
[2]
  IC50: > 1000 nM
